Common to all, as to type: biochemical
Experiment [1] has as its target T1, COX-2 (human recombinant) (Homo sapiens, UniProt P35354).
T1 construct: purchased Cayman Chemical
T1 sequence (P35354 18-604): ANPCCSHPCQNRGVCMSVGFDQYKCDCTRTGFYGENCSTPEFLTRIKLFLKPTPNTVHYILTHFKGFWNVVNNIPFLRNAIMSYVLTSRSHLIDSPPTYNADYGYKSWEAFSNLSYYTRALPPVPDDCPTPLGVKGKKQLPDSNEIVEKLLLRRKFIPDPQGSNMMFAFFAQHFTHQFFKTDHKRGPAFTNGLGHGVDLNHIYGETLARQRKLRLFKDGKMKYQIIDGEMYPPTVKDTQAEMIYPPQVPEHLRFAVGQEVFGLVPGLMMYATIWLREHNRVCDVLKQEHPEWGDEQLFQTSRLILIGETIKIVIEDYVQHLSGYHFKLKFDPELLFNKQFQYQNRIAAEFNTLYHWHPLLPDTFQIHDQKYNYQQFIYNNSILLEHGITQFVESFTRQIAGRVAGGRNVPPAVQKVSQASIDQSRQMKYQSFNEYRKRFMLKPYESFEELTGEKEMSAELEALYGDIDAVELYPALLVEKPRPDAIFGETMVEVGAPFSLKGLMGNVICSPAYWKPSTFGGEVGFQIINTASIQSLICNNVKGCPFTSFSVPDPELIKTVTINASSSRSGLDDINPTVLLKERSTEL
The experiment is described as follows: In vitro COX-2 inhibition assay (EIA kit). The settings on record: mean of three replicates ± SEM. How it is done: (§1) The inhibitory activity was measured and reported as IC50 value (µM). Data are expressed as IC50 ± SEM for triplicate studies.
(§2) Colorimetric enzyme immunoassay (EIA) was used to assess the inhibitory potential of the test compounds against COX-1, COX-2, and 5-LOX enzymes.

The target in another experiment is T2, COX-1 (ovine) (Ovis aries, UniProt P05979).
T2 construct: purchased Cayman Chemical
T2 sequence (P05979 25-600): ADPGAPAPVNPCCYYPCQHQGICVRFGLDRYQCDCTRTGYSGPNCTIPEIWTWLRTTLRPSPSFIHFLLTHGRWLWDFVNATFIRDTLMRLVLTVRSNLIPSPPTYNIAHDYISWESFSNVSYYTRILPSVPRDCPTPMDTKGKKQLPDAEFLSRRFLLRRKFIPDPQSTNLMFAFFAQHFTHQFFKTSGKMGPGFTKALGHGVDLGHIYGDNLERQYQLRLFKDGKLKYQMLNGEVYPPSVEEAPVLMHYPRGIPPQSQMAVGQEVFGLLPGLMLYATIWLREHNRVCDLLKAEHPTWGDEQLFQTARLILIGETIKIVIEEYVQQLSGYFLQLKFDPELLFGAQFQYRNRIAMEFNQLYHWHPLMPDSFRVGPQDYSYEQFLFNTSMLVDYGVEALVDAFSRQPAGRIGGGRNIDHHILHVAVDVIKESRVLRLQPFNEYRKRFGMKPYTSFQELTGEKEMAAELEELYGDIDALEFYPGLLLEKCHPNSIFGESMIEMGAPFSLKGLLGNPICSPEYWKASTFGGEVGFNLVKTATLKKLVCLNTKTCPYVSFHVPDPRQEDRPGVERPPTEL
The experiment is described as follows: In vitro COX-1 inhibition assay (EIA kit). The protocol:
as §1, §2

For the next experiment, the target named is T3, 5-LOX enzyme (Homo sapiens, UniProt P09917).
T3 construct: purchased Cayman Chemical
T3 sequence (P09917 1-674): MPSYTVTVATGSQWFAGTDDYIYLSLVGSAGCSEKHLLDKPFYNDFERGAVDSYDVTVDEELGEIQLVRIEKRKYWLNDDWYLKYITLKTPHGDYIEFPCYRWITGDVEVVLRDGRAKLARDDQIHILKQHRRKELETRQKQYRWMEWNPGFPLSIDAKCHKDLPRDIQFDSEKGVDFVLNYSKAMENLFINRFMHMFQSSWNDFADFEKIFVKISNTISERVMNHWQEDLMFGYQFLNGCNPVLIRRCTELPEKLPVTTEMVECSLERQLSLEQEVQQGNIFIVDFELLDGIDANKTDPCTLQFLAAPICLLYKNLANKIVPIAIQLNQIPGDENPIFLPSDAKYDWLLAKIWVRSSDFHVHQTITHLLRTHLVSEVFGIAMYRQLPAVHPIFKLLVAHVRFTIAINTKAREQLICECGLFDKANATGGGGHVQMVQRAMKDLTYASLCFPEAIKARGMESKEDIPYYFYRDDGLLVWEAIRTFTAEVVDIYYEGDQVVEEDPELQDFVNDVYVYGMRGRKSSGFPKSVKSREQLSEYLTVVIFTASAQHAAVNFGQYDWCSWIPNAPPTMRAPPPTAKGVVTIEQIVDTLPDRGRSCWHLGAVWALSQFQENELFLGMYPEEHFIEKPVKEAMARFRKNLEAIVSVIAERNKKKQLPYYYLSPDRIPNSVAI
The experiment is described as follows: In vitro 5-LOX inhibition assay (Human Lipoxygenase Inhibitor screening kit). The settings on record: mean of three replicates ± SEM. How it is done: The ability of the test compounds to inhibit the 5-LOX enzyme was evaluated using the Human Lipoxygenase Inhibitor screening assay (EIA) kit (Cayman Chemical). The IC50 values were measured in µM according to the manufacturer’s instructions and reported method[63]–[65]. Data are expressed as IC50 ± SEM for triplicate studies.
as §2

IC50 data for three compounds are collected here from PMC10224994, “Dual synergistic inhibition of COX and LOX by potential chemicals from Indian daily spices investigated through detailed computational studies” (Scientific Reports, 2023).

Where two headings read alike, the source gives them in different places.

On to `COc1cc(CNC(=O)CCCC/C=C/C(C)C)ccc1O` [Capsaicin, (E)-N-(4-hydroxy-3-methoxybenzyl)-8-methylnon-6-enamide], for which the figures for the IC50 (in experiment [1]; at COX-1 (ovine); against 5-LOX enzyme) were 28.3 ± 0.55 µM, 24.4 ± 0.62 µM and 36.4 ± 0.39 µM, respectively.

Turning to `COc1cc(/C=C/C(=O)CC(=O)/C=C/c2ccc(O)c(OC)c2)ccc1O` [Curcumin, (1E,6E)-1,7-bis(4-hydroxy-3-methoxyphenyl)hepta-1,6-diene-3,5-dione], the IC50 (commonly the concentration needed to halve the response being measured) against COX-1 (ovine) came to 18.6 ± 0.44 µM.

On to `CCCCC[C@H](O)CC(=O)CCc1ccc(O)c(OC)c1` [Gingerol, (S)-5-hydroxy-1-(4-hydroxy-3-methoxyphenyl)decan-3-one], for which the 50% inhibitory concentration (IC50) was determined as 32.82 ± 0.24 µM in experiment [1]; 27.1 ± 0.82 µM on COX-1 (ovine) (mean of three replicates ± SEM, read-out: IC50 data COX-1); 42.65 ± 0.17 µM against 5-LOX enzyme.
